Measured values reported in paper PMC7402526, “An in vitro quantitative systems pharmacology approach for deconvolving mechanisms of drug-induced, multilineage cytopenias” (PLoS Computational Biology, 2020).

Key:
Assay type in all cases: cell-based, human
[1] = system: monocyte progenitors (monocyte prog); assay: MLTA, MonoP: concentration-response and QSP model fit; conditions: Homo sapiens, Monocyte, 144 h
In short: (§1)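 Six-day flow cytometry counts, bead-normalized and expressed relative to the mean of six vehicle wells, underlie each value. Cells were primary human bone marrow CD34+ cells cultured in SFEM II with cytokines promoting multi-lineage differentiation and self-renewal.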

[2] = system: granulocyte progenitor (Gran-lin prog); assay: MLTA, GranP: concentration-response and QSP model fit; conditions: Homo sapiens, 144 h
In short: as §1

[3] = system: hematopoietic stem cells (HSCs); assay: Multi-lineage toxicity assay (MLTA), HSCs: concentration-response and QSP model fit; parameters: EmaxAP,HSC / EmaxT,HSC / Emax_drug_HSC: unitless, 0–2; ≤1 anti-proliferative, >1 adds cell killing
In short: (§2)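 Freeze-thawed primary human bone marrow CD34+ cells were cultured 6 days in SFEM II with a cytokine cocktail, drug added on day 0. Subsets were counted by 17-parameter flow cytometry with TruCount beads and normalized to vehicle wells. An Emax QSP model (Emax 0–2, L1 regularization) was fitted to these counts.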

[4] = system: neutrophils (neutrophil-lin); assay: MLTA, Neut: concentration-response and QSP model fit; conditions: Homo sapiens, Neutrophil, 144 h
In short: as §2

[5] = system: early erythroid cells (Eryth I); assay: MLTA, ErythI: concentration-response and QSP model fit; conditions: Homo sapiens, 144 h
In short: as §1

B cells (B-lin) = assay: MLTA, B-lin: concentration-response and QSP model fit; conditions: Homo sapiens, B-cell, 144 h
In short: as §2

monocytes (monocyte-lin) = assay: MLTA, Mono: concentration-response and QSP model fit; conditions: Homo sapiens, Monocyte, 144 h
In short: as §1

CCc1cnn2c(NCc3ccc[n+]([O-])c3)cc(N3CCCC[C@H]3CCO)nc12 [dinaciclib]
activity at 0.0002 µM ([1]; dose 0.2 nM, 6 days, normalized to vehicle control, read-out: MonoPs normalized cell count): 96.5%
activity at 0.001 µM ([1]; dose 1 nM, 6 days, normalized to vehicle control, read-out: MonoPs normalized cell count): 106%
activity at 0.005 µM ([1]; dose 5 nM, 6 days, normalized to vehicle control, read-out: MonoPs normalized cell count): 125%
activity at 0.025 µM ([1]; dose 25 nM, 6 days, normalized to vehicle control, read-out: MonoPs normalized cell count): 61.8%
activity at 0.1 µM ([1]; dose 100 nM, 6 days, normalized to vehicle control, read-out: MonoPs normalized cell count): 0.141%
activity at 0.5 µM ([1]; dose 500 nM, 6 days, normalized to vehicle control, read-out: MonoPs normalized cell count): 0.19%
activity at 2.5 µM ([1]; dose 2500 nM, 6 days, normalized to vehicle control, read-out: MonoPs normalized cell count): 0.231%
Emax ([1]; parameter from QSP model fitting, read-out: Emax_drug_MonoP): 0.04%
activity at 0.0002 µM ([2]; dose 0.2 nM, 6 days, normalized to vehicle control, read-out: GranPs normalized cell count): 97.3%
activity at 0.001 µM ([2]; dose 1 nM, 6 days, normalized to vehicle control, read-out: GranPs normalized cell count): 99.7%
activity at 0.005 µM ([2]; dose 5 nM, 6 days, normalized to vehicle control, read-out: GranPs normalized cell count): 93.8%
activity at 0.025 µM ([2]; dose 25 nM, 6 days, normalized to vehicle control, read-out: GranPs normalized cell count): 31.7%
activity at 0.1 µM ([2]; dose 100 nM, 6 days, normalized to vehicle control, read-out: GranPs normalized cell count): 0.0459%
activity at 0.5 µM ([2]; dose 500 nM, 6 days, normalized to vehicle control, read-out: GranPs normalized cell count): 0.033%
activity at 2.5 µM ([2]; dose 2500 nM, 6 days, normalized to vehicle control, read-out: GranPs normalized cell count): 0.0254%
Emax ([2]; parameter from QSP model fitting, read-out: Emax_drug_GranP): 0.0135%
activity at 0.0002 µM ([3]; Homo sapiens, Hematopoietic stem cell, 144 h, dose 0.2 nM, 6 days, normalized to vehicle control, read-out: HSCs normalized cell count): 89.5%
activity at 0.001 µM ([3]; Homo sapiens, Hematopoietic stem cell, 144 h, dose 1 nM, 6 days, normalized to vehicle control, read-out: HSCs normalized cell count): 106%
activity at 0.005 µM ([3]; Homo sapiens, Hematopoietic stem cell, 144 h, dose 5 nM, 6 days, normalized to vehicle control, read-out: HSCs normalized cell count): 115%
activity at 0.025 µM ([3]; Homo sapiens, Hematopoietic stem cell, 144 h, dose 25 nM, 6 days, normalized to vehicle control, read-out: HSCs normalized cell count): 61.2%
activity at 0.1 µM ([3]; Homo sapiens, Hematopoietic stem cell, 144 h, dose 100 nM, 6 days, normalized to vehicle control, read-out: HSCs normalized cell count): 1.89%
activity at 0.5 µM ([3]; Homo sapiens, Hematopoietic stem cell, 144 h, dose 500 nM, 6 days, normalized to vehicle control, read-out: HSCs normalized cell count): 5.17%
activity at 2.5 µM ([3]; Homo sapiens, Hematopoietic stem cell, 144 h, dose 2500 nM, 6 days, normalized to vehicle control, read-out: HSCs normalized cell count): 1.3%
Emax ([3]; Homo sapiens, Hematopoietic stem cell, 144 h, parameter from QSP model fitting, read-out: Emax_drug_HSC): 103%
EmaxAP,HSC ([3]; anti-proliferation component, min(1, EmaxT)): 1.000
activity at 0.0002 µM ([4]; dose 0.2 nM, 6 days, normalized to vehicle control, read-out: Neut normalized cell count): 83.8%
activity at 0.001 µM ([4]; dose 1 nM, 6 days, normalized to vehicle control, read-out: Neut normalized cell count): 83.1%
activity at 0.005 µM ([4]; dose 5 nM, 6 days, normalized to vehicle control, read-out: Neut normalized cell count): 24.9%
activity at 0.025 µM ([4]; dose 25 nM, 6 days, normalized to vehicle control, read-out: Neut normalized cell count): 0.684%
activity at 0.1 µM ([4]; dose 100 nM, 6 days, normalized to vehicle control, read-out: Neut normalized cell count): 0.0259%
activity at 0.5 µM ([4]; dose 500 nM, 6 days, normalized to vehicle control, read-out: Neut normalized cell count): 0.0166%
activity at 2.5 µM ([4]; dose 2500 nM, 6 days, normalized to vehicle control, read-out: Neut normalized cell count): 0.0149%
Emax ([4]; parameter from QSP model fitting, read-out: Emax_drug_Neut): 28.1%
activity at 0.0002 µM ([5]; dose 0.2 nM, 6 days, normalized to vehicle control, read-out: ErythI normalized cell count): 112%
activity at 0.001 µM ([5]; dose 1 nM, 6 days, normalized to vehicle control, read-out: ErythI normalized cell count): 104%
activity at 0.005 µM ([5]; dose 5 nM, 6 days, normalized to vehicle control, read-out: ErythI normalized cell count): 73.3%
activity at 0.025 µM ([5]; dose 25 nM, 6 days, normalized to vehicle control, read-out: ErythI normalized cell count): 23.9%
activity at 0.1 µM ([5]; dose 100 nM, 6 days, normalized to vehicle control, read-out: ErythI normalized cell count): 0.828%
activity at 0.5 µM ([5]; dose 500 nM, 6 days, normalized to vehicle control, read-out: ErythI normalized cell count): 0.888%
activity at 2.5 µM ([5]; dose 2500 nM, 6 days, normalized to vehicle control, read-out: ErythI normalized cell count): 0.845%
Emax ([5]; parameter from QSP model fitting, read-out: Emax_drug_ErythroidI): 112%
activity at 0.0002 µM (B cells (B-lin); dose 0.2 nM, 6 days, normalized to vehicle control, read-out: B-lin normalized cell count): 81.8%
activity at 0.001 µM (B cells (B-lin); dose 1 nM, 6 days, normalized to vehicle control, read-out: B-lin normalized cell count): 90.4%
activity at 0.005 µM (B cells (B-lin); dose 5 nM, 6 days, normalized to vehicle control, read-out: B-lin normalized cell count): 90.4%
activity at 0.025 µM (B cells (B-lin); dose 25 nM, 6 days, normalized to vehicle control, read-out: B-lin normalized cell count): 11.7%
activity at 0.1 µM (B cells (B-lin); dose 100 nM, 6 days, normalized to vehicle control, read-out: B-lin normalized cell count): 0.127%
activity at 0.5 µM (B cells (B-lin); dose 500 nM, 6 days, normalized to vehicle control, read-out: B-lin normalized cell count): 0.514%
activity at 2.5 µM (B cells (B-lin); dose 2500 nM, 6 days, normalized to vehicle control, read-out: B-lin normalized cell count): 0.106%
Emax (B cells (B-lin); parameter from QSP model fitting, read-out: Emax_drug_B): 77.4%
activity at 0.0002 µM (monocytes (monocyte-lin); dose 0.2 nM, 6 days, normalized to vehicle control, read-out: Mon normalized cell count): 90.7%
activity at 0.001 µM (monocytes (monocyte-lin); dose 1 nM, 6 days, normalized to vehicle control, read-out: Mon normalized cell count): 106%
activity at 0.005 µM (monocytes (monocyte-lin); dose 5 nM, 6 days, normalized to vehicle control, read-out: Mon normalized cell count): 69.5%
activity at 0.025 µM (monocytes (monocyte-lin); dose 25 nM, 6 days, normalized to vehicle control, read-out: Mon normalized cell count): 8.55%
activity at 0.1 µM (monocytes (monocyte-lin); dose 100 nM, 6 days, normalized to vehicle control, read-out: Mon normalized cell count): 0.496%
activity at 0.5 µM (monocytes (monocyte-lin); dose 500 nM, 6 days, normalized to vehicle control, read-out: Mon normalized cell count): 0.834%
activity at 2.5 µM (monocytes (monocyte-lin); dose 2500 nM, 6 days, normalized to vehicle control, read-out: Mon normalized cell count): 0.535%
Emax (monocytes (monocyte-lin); parameter from QSP model fitting, read-out: Emax_drug_Mono): 48.2%
